Among the data in publication PMC2963183, “Enzyme Inhibition by Molluscicidal Components of Myristica fragrans Houtt. in the Nervous Tissue of Snail Lymnaea acuminata” (Enzyme Research, 2009) are IC50 and Km values, retold here.

For orientation: IC50 means the concentration that gives 50% inhibition. The low end stands for inhibition by little substance, the high end for a need for much substance. The Km is the concentration of substrate that gives half-maximal velocity.

The target of assay [1] is T1, acetylcholinesterase (AChE).
T1 construct: native, crude nervous tissue homogenate supernatant (1000 g), not purified
Briefly: Ellman assay, […] nm. Type of assay: biochemical, Lymnaea acuminata. The note with it: acetylthiocholine iodide, pH 8.0, 25°C, 15 min preincubation; tissue homogenate supernatant; competitive noncompetitive. (In general: DTNB colorimetry detects thiols as they appear.)

Assay [2] addresses T2, alkaline phosphatase (ALP).
T2 construct: native, crude nervous tissue homogenate supernatant (5000 g), not purified; isoenzyme not identified
Briefly: 4-nitrophenol release, […] nm. The class given is biochemical, Lymnaea acuminata. As to conditions: 4-nitrophenyl phosphate, glycine-NaOH buffer, MgCl2, 37°C, 15 min preincubation at 25°C, tissue homogenate supernatant.

Assay [3] addresses T3, acid phosphatase (ACP).
T3 construct: native, crude nervous tissue homogenate supernatant (5000 g), not purified; isoenzyme not identified
As to the kind of experiment: 4-nitrophenol release, […] nm. The class given is biochemical, Lymnaea acuminata. The note with it: 4-nitrophenyl phosphate, citrate acid buffer, 37°C, 15 min preincubation at 25°C, tissue homogenate supernatant.

For assay [4], the system named is T1, acetylcholinesterase (AChE). Briefly: Ellman assay, […] nm, Lineweaver-Burk. Type of assay: biochemical, Lymnaea acuminata. As to conditions: pH 8.0, 25°C; no inhibitor; tissue homogenate supernatant.
For assay [5], the system named is acid phosphatase (ACP). The note with it: citrate acid buffer, 37°C; no inhibitor; tissue homogenate supernatant.
The test system of assay [6] is alkaline phosphatase (ALP). As to conditions: glycine-NaOH buffer, MgCl2, 37°C; no inhibitor; tissue homogenate supernatant.

For `C=CCc1cc(OC)c2c(c1)OCO2` [myristicin, 4-methoxy-6-(2-propenyl)-1,3-benzodioxole], the IC50 worked out at 30 µM in assay [1], 60 µM in assay [2] (uncompetitive) and 70 µM on acid phosphatase (ACP) [3] (competitive).
With `CCCCCCCCCCCCCC(=O)OCC(COC(=O)CCCCCCCCCCCCC)OC(=O)CCCCCCCCCCCCC` [trimyristin, 1,2,3-tritetradecanoylglycerol], the half-inhibitory concentration (IC50) in assay [1] is 110 µM; in assay [2] (competitive noncompetitive), 180 µM; on acid phosphatase (ACP) [3] (uncompetitive) it was 160 µM.
For the compound `CC(=O)SCC[N+](C)(C)C` [acetylthiocholine iodide], the Km in assay [4] stood at 317 µM.
Consider `O=[N+]([O-])c1ccc(OP(=O)(O)O)cc1` [4-nitrophenyl phosphate], for which the values for the Michaelis-Menten constant (Km) (with acid phosphatase (ACP) [5]; in assay [6]) were 13.7 µM and 20 µM, respectively.
